Where a name gives a salt, the structure may show the parent alone.
What was measured:
LOXL2 [1] = target: T1, LOXL2 (Homo sapiens, UniProt Q9Y4K0); assay: Western-based quantification of free LOXL2 captured with biotinylated LOXL2 inhibitor (Compound 1-1); type: binding; details: pre-incubation with 1-13a 1-2 hrs at 37° C., capture with Compound 1-1
T1 sequence (Q9Y4K0 26-774): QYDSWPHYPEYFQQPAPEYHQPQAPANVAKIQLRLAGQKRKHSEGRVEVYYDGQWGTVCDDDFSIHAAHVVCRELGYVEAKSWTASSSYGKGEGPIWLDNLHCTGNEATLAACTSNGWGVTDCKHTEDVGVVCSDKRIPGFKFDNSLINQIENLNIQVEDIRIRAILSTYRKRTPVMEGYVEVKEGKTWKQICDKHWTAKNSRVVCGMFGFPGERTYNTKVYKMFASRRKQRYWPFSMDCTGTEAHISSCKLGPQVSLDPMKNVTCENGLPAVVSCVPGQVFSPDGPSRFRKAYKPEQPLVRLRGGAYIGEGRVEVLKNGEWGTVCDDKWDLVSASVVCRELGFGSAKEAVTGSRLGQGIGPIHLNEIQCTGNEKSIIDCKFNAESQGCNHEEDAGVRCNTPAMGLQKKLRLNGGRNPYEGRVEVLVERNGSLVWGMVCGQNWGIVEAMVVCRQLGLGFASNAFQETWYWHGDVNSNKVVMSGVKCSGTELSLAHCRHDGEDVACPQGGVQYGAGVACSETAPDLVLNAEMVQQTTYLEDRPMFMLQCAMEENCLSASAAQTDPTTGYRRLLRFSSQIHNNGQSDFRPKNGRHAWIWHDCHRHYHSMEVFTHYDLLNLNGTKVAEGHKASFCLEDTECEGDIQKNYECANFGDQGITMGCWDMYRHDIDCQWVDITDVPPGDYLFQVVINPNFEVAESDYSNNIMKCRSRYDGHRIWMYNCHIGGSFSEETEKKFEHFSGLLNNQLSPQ
Experimental: To quantify LOXL2 using a Western-based assay, a suitable amount of the LOXL2 inhibitor 1-13a, such as 10 or DMSO was pre-incubated with a suitable amount of LOXL2, such as 1 ng, 10 ng, or 100 ng, for a suitable amount of time at an appropriate temperature, such as 1-2 hrs at 37° C. Then an appropriate amount of the biotinylated labeled LOXL2 inhibitor (Compound 1-1), such as 5, was added and was allowed to incubate with the LOXL2 for a suitable amount of time at an appropriate temperature, such as 1 hr at 37° C. Then the biotinylated labeled LOXL2 inhibitor (Compound 1-1)/LOXL2 complex was isolated with Streptavidin coated magnetic beads. After incubation with the streptavidin magnetic beads for an appropriate amount of time, a magnet (for example, DynaMag™-2 Magnet) was used to capture the biotinylated labeled LOXL2 inhibitor (Compound 1-1)/LOXL2 bead bound complex and the supernatant was removed. […]
A Western Blot is then performed with an anti-LOXL2 antibody to quantify the amount of LOXL2 bound to the biotinylated LOXL2 inhibitor (Compound 1-1).

LOXL2 [2] = target: T1, LOXL2; assay: Western-based magnetic bead assay for free/unbound LOXL2 in human plasma pre-incubated with compound; type: binding; set-up: from tissue; host or cells: human plasma (donors / healthy volunteers); details: 10 mL human plasma, 2 hours at 37° C., capture with FG beads (Compound 1-7)
Experimental: Beads are resuspended to 10 mg/mL in Wash Buffer (20 mM Tris pH 8, 0.2% NP-40, 120 mM NaCl) and 1 mg beads (100 μL) are added to 1-10 mL of plasma, serum or other biological fluid containing LOXL2 and incubated at 37° C. for 0.5-2 hours with rotation. Beads are separated from plasma or other matrix using magnetic separation (for example, DynaMag™-15 Magnet) for 10 minutes at room temperature then the plasma/matrix carefully removed. The beads are resuspended in 1 mL Wash Buffer, vortexed and centrifuged at 4500×g for 5 minutes at room temperature to move all beads to the bottom of the tube. Beads are transferred to a 1.5 mL microfuge tube and washed 3 times with Wash Buffer using magnetic separation (for example, DynaMag™-2 Magnet). After the final wash, beads are resuspended in 40 μL of 1× BOLT® LDS Sample Buffer (Thermo Fisher, Waltham, Mass.) containing 1× BOLT® Sample Reducing Agent (Thermo Fisher, Waltham, Mass.) and incubated for 10 minutes at 90° C. Samples are centrifuged at 10,000×g for 1 minute then magnetically separated using a DynaMag™-2 Magnet for 2 minutes. 40 μL of each supernatant is loaded into one well of a 10 well 4-12% Bis-Tris Plus gel (Thermo Fisher, Waltham, Mass.) and the gels run for 45 minutes at 164 volts in 1×MES SDS Running Buffer (Thermo Fisher, Waltham, Mass.). […]

LOXL2 [3] = target: T1, LOXL2; assay: LOXL2 target engagement in plasma of healthy volunteers after single oral dose (Western-based FG bead assay); type: in vivo; set-up: from tissue; host or cells: human plasma (donors / healthy volunteers)
Experimental: Beads are resuspended to 10 mg/mL in Wash Buffer (20 mM Tris pH 8, 0.2% NP-40, 120 mM NaCl) and 1 mg beads (100 μL) are added to 1-10 mL of plasma, serum or other biological fluid containing LOXL2 and incubated at 37° C. for 0.5-2 hours with rotation. Beads are separated from plasma or other matrix using magnetic separation (for example, DynaMag™-15 Magnet) for 10 minutes at room temperature then the plasma/matrix carefully removed. The beads are resuspended in 1 mL Wash Buffer, vortexed and centrifuged at 4500×g for 5 minutes at room temperature to move all beads to the bottom of the tube. Beads are transferred to a 1.5 mL microfuge tube and washed 3 times with Wash Buffer using magnetic separation (for example, DynaMag™-2 Magnet). After the final wash, beads are resuspended in 40 μL of 1× BOLT® LDS Sample Buffer (Thermo Fisher, Waltham, Mass.) containing 1× BOLT® Sample Reducing Agent (Thermo Fisher, Waltham, Mass.) and incubated for 10 minutes at 90° C. Samples are centrifuged at 10,000×g for 1 minute then magnetically separated using a DynaMag™-2 Magnet for 2 minutes. 40 μL of each supernatant is loaded into one well of a 10 well 4-12% Bis-Tris Plus gel (Thermo Fisher, Waltham, Mass.) and the gels run for 45 minutes at 164 volts in 1×MES SDS Running Buffer (Thermo Fisher, Waltham, Mass.). Gels are transferred to nitrocellulose using iBlot (Thermo Fisher, Waltham, Mass.) according to the manufacturer's recommendation. Blots are incubated in Bullet Blocking One (Nacalai USA, Inc) for 5 minutes at room temperature then incubated overnight at 4° C. with an anti-LOXL2 antibody (for example, R&D Systems goat polyclonal) diluted in Signal Enhancer Solution 1 (Nacalai USA, Inc). Blots are rinsed quickly twice in PBS/0.1% tween-20 then washed 3 times for 10 minutes each in the PBS/tween solution. A secondary infrared dye (IRdye)-conjugated secondary antibody (LI-COR Biosciences, Lincoln, Neb.) diluted in Signal Enhancer 2 (Nacalai USA, Inc) is added to the blot and incubated for 45 minutes-1 hour at room temperature in the dark. Blots are washed as above with PBS/tween then rinsed in PBS before imaging with a LI-COR Odyssey (LI-COR, Lincoln, Neb.).
Healthy human subjects (male and female) were dosed with compound 2 in solution. […] Placebo data is the average of all the placebo subjects in the single dose study (n=10).

## NCc1cc(Oc2cccc(C(=O)N3C[C@@H](O)[C@H](F)C3)c2)nc(C(F)(F)F)c1 [Compound 1-13a, (R,R)-trans-(3-((4-(Aminomethyl)-6-(trifluoromethyl)pyridin-2-yl)oxy)phenyl)(3-fluoro-4-hydroxypyrrolidin-1-yl)methanone hydrochloride]
LOXL2 [1]
  reduction of unbound/free LOXL2 captured by the biotinylated LOXL2 inhibitor: 70-100%
LOXL2 [2]; 1 μM
  decrease of free/unbound LOXL2 relative to vehicle control: approximately 63%
LOXL2 [2]; 10 μM
  decrease of free/unbound LOXL2 relative to vehicle control: ~100%
LOXL2 [3]; 150 mg single oral dose, 2 hour post-dose
  Ave plasma % TE: 62%
LOXL2 [3]; 150 mg single oral dose, 2 hours post-dosing, healthy subjects
  average decrease of free/unbound LOXL2 in plasma: approximately 60%
LOXL2 [3]; 150 mg single oral dose, 24 hour post-dose
  Ave plasma % TE: 20%
LOXL2 [3]; 450 mg single oral dose, 2 hour post-dose
  Ave plasma % TE: 78%
LOXL2 [3]; 450 mg single oral dose, 24 hour post-dose
  Ave plasma % TE: −13%
LOXL2 [3]; 1000 mg single oral dose, 2 hour post-dose
  Ave plasma % TE: 92%
LOXL2 [3]; 1000 mg single oral dose, 24 hour post-dose
  Ave plasma % TE: 1%
LOXL2 [3]; plasma samples of healthy volunteers dosed with compound 1-13a, read-out: IC50 of % target engagement versus plasma concentration
  IC50: 0.905 µM
